According to ChEMBL document CHEMBL4680187, “Optimization of EphA2 antagonists based on a lithocholic acid core led to the identification of UniPR505, a new 3α-carbamoyloxy derivative with antiangiogenetic properties” (Eur J Med Chem, 2020):
Active and inactive are the calls of the source. No cut-off for these calls is given here.

Legend:
Ephrin type-A receptor 8 = target: T1, Ephrin type-A receptor 8 (Mus musculus, UniProt O09127); assay: Displacement of biotinylated ephrin-A1-Fc from mouse EphA8 Fc preincubated for 1 hr followed by ephrin-A1-FC addition and measured after 4 hrs by ELISA
T1 sequence (O09127 whole entry): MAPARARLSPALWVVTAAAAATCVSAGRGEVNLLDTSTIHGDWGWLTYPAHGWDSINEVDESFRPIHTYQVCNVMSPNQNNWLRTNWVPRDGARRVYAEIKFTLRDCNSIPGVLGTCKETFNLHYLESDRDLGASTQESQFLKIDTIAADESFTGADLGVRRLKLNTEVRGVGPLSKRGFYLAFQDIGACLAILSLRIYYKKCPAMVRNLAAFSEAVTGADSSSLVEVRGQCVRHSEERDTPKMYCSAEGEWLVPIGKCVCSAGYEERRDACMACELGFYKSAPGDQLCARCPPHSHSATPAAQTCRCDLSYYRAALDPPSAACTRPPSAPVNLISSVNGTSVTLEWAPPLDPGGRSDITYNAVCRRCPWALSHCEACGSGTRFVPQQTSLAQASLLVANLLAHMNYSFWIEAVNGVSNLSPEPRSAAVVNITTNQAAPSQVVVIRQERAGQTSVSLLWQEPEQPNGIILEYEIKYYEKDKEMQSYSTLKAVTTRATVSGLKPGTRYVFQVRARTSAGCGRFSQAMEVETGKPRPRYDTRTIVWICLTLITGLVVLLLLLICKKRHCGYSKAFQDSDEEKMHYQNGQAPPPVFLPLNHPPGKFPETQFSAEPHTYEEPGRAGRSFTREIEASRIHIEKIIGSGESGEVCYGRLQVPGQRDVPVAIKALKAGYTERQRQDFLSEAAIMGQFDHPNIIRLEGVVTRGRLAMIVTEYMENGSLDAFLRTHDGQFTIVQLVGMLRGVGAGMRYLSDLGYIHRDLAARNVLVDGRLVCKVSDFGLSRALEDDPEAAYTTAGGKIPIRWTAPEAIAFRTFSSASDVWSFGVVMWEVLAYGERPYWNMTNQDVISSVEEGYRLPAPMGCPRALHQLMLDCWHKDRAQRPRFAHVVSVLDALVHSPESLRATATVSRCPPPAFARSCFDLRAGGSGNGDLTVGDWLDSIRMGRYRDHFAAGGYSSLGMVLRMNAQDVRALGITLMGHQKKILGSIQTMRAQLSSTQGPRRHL

Chorioallantoic membrane = assay: Antiangiogenic activity in Leghorn chicken fertilized egg chorioallantoic membrane assessed as reduction in VEGF stimulated neovascularization at 10 uM measured after 3 days by CAM assay; format: functional, tissue-based; conditions: Gallus gallus, time 3.0 day
Ephrin type-A receptor 5 = Ephrin type-A receptor 5 (Rattus norvegicus, UniProt P54757); assay: Displacement of biotinylated ephrin-A1-Fc from rat EphA5 Fc preincubated for 1 hr followed by ephrin-A1-FC addition and measured after 4 hrs by ELISA
Ephrin type-A receptor 5, sequence (P54757 whole entry): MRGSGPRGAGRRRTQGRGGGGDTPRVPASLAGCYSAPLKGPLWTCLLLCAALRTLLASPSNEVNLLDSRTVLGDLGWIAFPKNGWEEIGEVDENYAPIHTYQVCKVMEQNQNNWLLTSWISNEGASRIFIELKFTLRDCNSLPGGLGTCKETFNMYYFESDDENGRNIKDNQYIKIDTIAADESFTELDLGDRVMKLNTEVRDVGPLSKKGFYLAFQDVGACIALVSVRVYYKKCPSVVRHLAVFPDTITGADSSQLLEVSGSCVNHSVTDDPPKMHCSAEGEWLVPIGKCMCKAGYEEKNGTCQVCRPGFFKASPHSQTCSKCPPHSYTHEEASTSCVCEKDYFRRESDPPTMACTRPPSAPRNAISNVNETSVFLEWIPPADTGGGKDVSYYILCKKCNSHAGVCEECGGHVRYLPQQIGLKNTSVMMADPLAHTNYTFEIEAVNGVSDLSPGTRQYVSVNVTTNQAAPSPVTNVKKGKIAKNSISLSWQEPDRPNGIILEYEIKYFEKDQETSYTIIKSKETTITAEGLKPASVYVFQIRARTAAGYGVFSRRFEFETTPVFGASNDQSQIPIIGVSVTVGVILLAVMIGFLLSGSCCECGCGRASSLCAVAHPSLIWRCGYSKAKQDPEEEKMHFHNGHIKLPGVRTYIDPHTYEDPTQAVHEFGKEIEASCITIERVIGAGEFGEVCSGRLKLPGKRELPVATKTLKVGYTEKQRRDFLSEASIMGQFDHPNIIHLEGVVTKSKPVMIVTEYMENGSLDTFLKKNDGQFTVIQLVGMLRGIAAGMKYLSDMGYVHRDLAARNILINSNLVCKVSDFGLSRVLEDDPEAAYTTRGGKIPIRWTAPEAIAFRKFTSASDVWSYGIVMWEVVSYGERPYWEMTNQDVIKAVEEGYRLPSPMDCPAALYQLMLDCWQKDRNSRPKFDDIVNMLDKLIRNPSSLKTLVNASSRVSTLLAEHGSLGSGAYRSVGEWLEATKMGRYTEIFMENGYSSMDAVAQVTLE

HUVEC = assay: Cytotoxicity against HUVEC cells after 2 to 16 hrs by LDH assay; format: cell-based; conditions: human, time 2-16 hrs
Ephrin type-A receptor 3 = target: T2, Ephrin type-A receptor 3 (Mus musculus, UniProt P29319); assay: Displacement of biotinylated ephrin-A1-Fc from mouse EphA3 Fc preincubated for 1 hr followed by ephrin-A1-FC addition and measured after 4 hrs by ELISA
T2 sequence (P29319 whole entry): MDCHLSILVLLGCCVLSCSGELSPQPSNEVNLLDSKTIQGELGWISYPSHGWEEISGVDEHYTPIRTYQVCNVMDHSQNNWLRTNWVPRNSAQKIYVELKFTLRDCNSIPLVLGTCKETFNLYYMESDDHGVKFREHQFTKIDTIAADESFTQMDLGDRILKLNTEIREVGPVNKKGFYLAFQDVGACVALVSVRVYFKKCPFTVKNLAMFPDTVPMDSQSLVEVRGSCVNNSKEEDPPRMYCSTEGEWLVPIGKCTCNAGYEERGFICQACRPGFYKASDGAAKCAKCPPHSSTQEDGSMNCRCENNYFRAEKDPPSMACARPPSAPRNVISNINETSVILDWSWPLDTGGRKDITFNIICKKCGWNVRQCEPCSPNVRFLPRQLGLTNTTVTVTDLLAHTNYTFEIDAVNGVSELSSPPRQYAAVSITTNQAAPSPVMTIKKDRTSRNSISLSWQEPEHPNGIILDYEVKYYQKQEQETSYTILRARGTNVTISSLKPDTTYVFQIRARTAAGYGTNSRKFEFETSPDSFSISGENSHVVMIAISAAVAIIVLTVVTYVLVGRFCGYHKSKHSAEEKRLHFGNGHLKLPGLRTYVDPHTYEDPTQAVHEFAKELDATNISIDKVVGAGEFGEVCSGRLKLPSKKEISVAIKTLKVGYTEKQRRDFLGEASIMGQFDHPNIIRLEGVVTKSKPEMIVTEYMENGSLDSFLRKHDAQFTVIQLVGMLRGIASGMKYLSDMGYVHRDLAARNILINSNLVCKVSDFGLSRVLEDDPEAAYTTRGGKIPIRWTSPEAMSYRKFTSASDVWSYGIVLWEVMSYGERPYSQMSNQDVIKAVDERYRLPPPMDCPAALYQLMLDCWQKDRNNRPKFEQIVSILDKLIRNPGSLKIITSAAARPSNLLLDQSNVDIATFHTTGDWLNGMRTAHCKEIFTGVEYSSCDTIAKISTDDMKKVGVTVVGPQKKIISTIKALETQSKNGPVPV

IC50 (Ephrin type-A receptor 8): 7.7 µM | IC50 (Ephrin type-A receptor 5): 4.4 µM | IC50 (Ephrin type-A receptor 3): 4.5 µM
Structure (SMILES): CCNC(=O)O[C@@H]1CC[C@@]2(C)[C@H](CC[C@@H]3[C@@H]2CC[C@]2(C)[C@@H]([C@H](C)CCC(=O)N[C@H](CC(=O)O)Cc4c[nH]c5ccccc45)CC[C@@H]32)C1
Activity (Chorioallantoic membrane): Active | Activity (HUVEC): Non-Toxic
